For assay [1], the target named is T1, Carbonic anhydrase 1 (Homo sapiens, UniProt P00915). As to the kind of experiment: Inhibition constant of anion against human carbonic anhydrase isozyme hCA I; A = activator.
Another assay deals with Carbonic anhydrase V (Homo sapiens, UniProt Q9Y2D0+P35218). As to the kind of experiment: Inhibition constant of anion against human carbonic anhydrase isozyme hCA V. It is filed as protein assay.
Another assay has as its target Carbonic anhydrase 2 (Homo sapiens, UniProt P00918). As to the kind of experiment: Inhibition constant of anion against human carbonic anhydrase isozyme hCA II.
The target in a further assay is Carbonic anhydrase 9 (Homo sapiens, UniProt Q16790). As to the kind of experiment: Inhibition constant of anion against human carbonic anhydrase isozyme hCA IX.
In the next assay the target is Carbonic anhydrase 4 (Homo sapiens, UniProt P22748). As to the kind of experiment: Inhibition constant of anion against human carbonic anhydrase isozyme hCA IV.
Sequence of Carbonic anhydrase 4 (P22748 whole entry): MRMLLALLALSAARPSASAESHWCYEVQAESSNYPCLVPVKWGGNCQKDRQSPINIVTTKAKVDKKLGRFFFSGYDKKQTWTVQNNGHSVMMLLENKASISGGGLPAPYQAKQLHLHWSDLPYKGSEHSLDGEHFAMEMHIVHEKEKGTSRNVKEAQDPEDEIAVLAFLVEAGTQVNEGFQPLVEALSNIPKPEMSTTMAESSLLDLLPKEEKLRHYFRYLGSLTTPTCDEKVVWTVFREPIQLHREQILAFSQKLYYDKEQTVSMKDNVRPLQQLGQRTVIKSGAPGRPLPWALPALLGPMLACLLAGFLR
The target in assay [2] is T1, Carbonic anhydrase 1. As to the kind of experiment: Inhibition constant of anion against human carbonic anhydrase isozyme hCA I.

SMILES strings stand for the structures.

T1 sequence (P00915 whole entry): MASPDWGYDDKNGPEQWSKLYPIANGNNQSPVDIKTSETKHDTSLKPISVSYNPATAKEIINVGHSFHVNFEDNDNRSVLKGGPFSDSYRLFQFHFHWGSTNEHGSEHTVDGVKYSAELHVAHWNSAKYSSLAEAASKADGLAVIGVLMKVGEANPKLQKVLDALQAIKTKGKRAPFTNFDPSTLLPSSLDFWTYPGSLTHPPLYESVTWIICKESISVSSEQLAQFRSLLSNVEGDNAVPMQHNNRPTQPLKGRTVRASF

`O=P([O-])([O-])O.[Na+].[Na+]` [SODIUM PHOSPHATE, DIBASIC, ANHYDROUS]: the values for the inhibition constant Ki result at Carbonic anhydrase 1 [1] and on Carbonic anhydrase V were “Activator” and 4.49 mM, respectively.
On to `O=C[O-].[Na+]` [SODIUM FORMATE], for which the inhibitory constant (Ki) entry on Carbonic anhydrase 1 [1] is “Activator”; on Carbonic anhydrase V it was 9.97 mM; at Carbonic anhydrase 2, 24 mM; on Carbonic anhydrase 9, 1.22 mM.
Turning to `O=P([O-])(O)O.[Na+]` [SODIUM PHOSPHATE, MONOBASIC], the Ki result on Carbonic anhydrase 1 [1] is “Activator”; at Carbonic anhydrase V, 3.3 mM.
For the molecule `O=C([O-])P(=O)([O-])[O-].[Na+].[Na+].[Na+]` [FOSCARNET SODIUM], the inhibition constant (Ki) result is “Activator” at Carbonic anhydrase 1 [1]; 41.7 mM on Carbonic anhydrase V; 14.2 mM at Carbonic anhydrase 2; 0.82 mM at Carbonic anhydrase 4; 2.21 mM at Carbonic anhydrase 9.
As to `O=C([O-])O.[Na+]` [SODIUM BICARBONATE], the results for the inhibitory constant (Ki) on Carbonic anhydrase V, on Carbonic anhydrase 4 and on Carbonic anhydrase 9 were 82 mM, 6.6 mM and 13 mM, respectively.
For `NC(=O)OP(=O)([O-])[O-].[Na+].[Na+]` [CARBAMOYL PHOSPHATE; DI SODIUM], the inhibition constant (Ki) on Carbonic anhydrase 1 [2] turned out to be 0.0094 mM; at Carbonic anhydrase V, 0.0085 mM; on Carbonic anhydrase 2, 0.31 mM; at Carbonic anhydrase 4, 0.0099 mM; at Carbonic anhydrase 9, 3.06 mM.
On to `O=C([O-])[O-].[Na+].[Na+]` [SODIUM CARBONATE], for which the Ki on Carbonic anhydrase V was 95 mM; at Carbonic anhydrase 4, 5.7 mM.

One may read the Ki as a dissociation constant, usually derived from enzyme kinetics or from competition with a known ligand. A low value points to tighter binding.

(Values after ChEMBL document CHEMBL1138645, “Carbonic anhydrase inhibitors. Interaction of isozymes I, II, IV, V, and IX with phosphates, carbamoyl phosphate, and the phosphonate antiviral drug foscarnet” (Bioorg Med Chem Lett, 2004).)
